This passage reports Activity and inhibition results from ChEMBL document CHEMBL6153077, “Design, synthesis, and anti-liver fibrosis activity of novel non-steroidal vitamin D receptor agonists based on open-ring steroid scaffold” (Eur J Med Chem, 2025).

Experiment [1] has as its target T1, Vitamin D3 receptor (Homo sapiens) (UniProt P11473).
T1 sequence (whole entry): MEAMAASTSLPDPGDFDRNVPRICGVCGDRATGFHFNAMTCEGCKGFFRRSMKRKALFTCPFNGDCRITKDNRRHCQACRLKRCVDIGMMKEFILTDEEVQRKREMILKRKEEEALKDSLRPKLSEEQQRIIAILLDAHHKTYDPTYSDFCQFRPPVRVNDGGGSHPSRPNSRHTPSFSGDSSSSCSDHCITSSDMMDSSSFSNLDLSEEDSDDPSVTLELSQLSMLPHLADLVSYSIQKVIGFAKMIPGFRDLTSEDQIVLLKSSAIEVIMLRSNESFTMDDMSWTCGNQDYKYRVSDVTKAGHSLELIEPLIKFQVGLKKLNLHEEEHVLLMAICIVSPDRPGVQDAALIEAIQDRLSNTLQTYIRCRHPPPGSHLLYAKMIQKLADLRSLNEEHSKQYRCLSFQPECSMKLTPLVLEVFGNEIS
Description: Binding affinity to full-length VDR (unknown origin) at 1 uM by fluorescence polarization assay relative to control.

Experiment [2] deals with T1, Vitamin D3 receptor (Homo sapiens). Put plainly: Agonist activity at VDR in human LX2 cells assessed as increase in CYP24A1 level at 0.5 uM by qRT-PCR analysis. The class given is cell-based. As to conditions: filed as agonist.
Experiment [3] concerns LX-2. Description: Inhibition of HSC activation in TGF-beta1-treated human LX2 cells assessed as decrease in ACTA2 mRNA level at 0.5 uM incubated for 24 hrs by qPCR analysis. It counts as functional, cell-based. (In general: In qPCR the cycle at which signal appears reflects the starting amount.)
The subject of experiment [4] is LX-2. Put plainly: Inhibition of HSC activation in TGF-beta1-treated human LX2 cells assessed as decrease in COL1A1 mRNA level at 0.5 uM incubated for 24 hrs by qPCR analysis. The class given is functional, cell-based.
Experiment [5] deals with LX-2. Put plainly: Inhibition of HSC activation in TGF-beta1-treated human LX2 cells harboring VDR siRNA assessed as decrease in alpha-SMA level at 0.5 uM incubated for 24 hrs by Western blot analysis. The class given is functional, cell-based.
In experiment [6] the test system is LX-2. Put plainly: Inhibition of HSC activation in TGF-beta1-treated human LX2 cells harboring VDR siRNA assessed as decrease in collagen-I level at 0.5 uM incubated for 24 hrs by Western blot analysis. It counts as functional, cell-based. On the technique in general: A western blot detects proteins with antibodies after separation by electrophoresis.
The target of experiment [7] is T1, Vitamin D3 receptor (Homo sapiens). Put plainly: Agonist activity at human VDR in HEK293 cells co-expressing 3-Luc/RXRalpha assessed as transcriptional activity at 0.5 uM by dual luciferase reporter assay. It counts as cell-based. As to conditions: filed as agonist. (In a reporter assay the amount or activity of a reporter protein is the signal.)
Experiment [8] concerns LX-2. Description: Inhibition of HSC activation in TGF-beta1-treated human LX2 cells assessed as decrease in alpha-SMA level at 0.5 uM incubated for 24 hrs by Western blot analysis. The class given is functional, cell-based.
The subject of experiment [9] is LX-2. Description: Inhibition of HSC activation in TGF-beta1-treated human LX2 cells assessed as decrease in collagen-I level at 0.5 uM incubated for 24 hrs by Western blot analysis. It counts as functional, cell-based.

The structures appear in SMILES notation. The source made the active and inactive calls. No cut-off for these calls is given here.

The compound `CC(C)(O)COc1ccc(/C=C/C2=C[C@@H](O)[C@@H](O)[C@H](O)C2)c2c1CCCC2` gave an Activity in experiment [1] (filed as agonist) of 72%. `CC(C)(C)c1ccc(C(=O)COc2ccc(/C=C/C3=C[C@@H](O)[C@@H](O)[C@H](O)C3)c3c2CCCC3)cc1`: the Activity in experiment [1] (filed as agonist) worked out at 88%. The compound `CCC(O)(CC)COc1ccc(/C=C/C2=C[C@@H](O)[C@@H](O)[C@H](O)C2)c2c1CCCC2` came in with an Activity in [1] (filed as agonist) of 61%. In [1] (filed as agonist), `CCN(CC)C(=O)COc1ccc(/C=C/C2=C[C@@H](O)[C@@H](O)[C@H](O)C2)c2c1CCCC2` showed an Activity of 56%. `CC(C)(O)CCOc1ccc(/C=C/C2=C[C@@H](O)[C@@H](O)[C@H](O)C2)c2c1CCCC2`: in [1] (filed as agonist), the Activity was determined as 55%. In experiment [1] (filed as agonist), `OCc1ccc(/C=C/c2ccc(OCCCC(F)(F)F)cc2)cc1CO` returned an Activity of 51%. The same measure, in the same setting: the figure for `CC(C)(O)CCOc1cccc2c1CCCC2OC(=O)C1=C[C@@H](O)[C@@H](O)[C@H](O)C1` (stereo partly drawn) is 45%; for `CC(C)(O)CCCCOc1ccc(C#CC2=C[C@@H](O)[C@@H](O)[C@H](O)C2)c2c1CCCC2` it is 50%. `O=C(COc1ccc(/C=C/C2=C[C@@H](O)[C@@H](O)[C@H](O)C2)c2c1CCCC2)N1CCOCC1`: the Activity in experiment [1] (filed as agonist) was determined as 45%. The same measure, in the same setting: the figure for `CC(C)(O)CCCn1ccc2c(/C=C/C3=C[C@@H](O)[C@@H](O)[C@H](O)C3)cccc21` is 71%. `O=C(COc1ccc(/C=C/C2=C[C@@H](O)[C@@H](O)[C@H](O)C2)c2c1CCCC2)c1ccccc1` had an Activity in experiment [1] (filed as agonist) of 72%. The outcome in experiment [2] was Active. Further, the inhibition result with LX-2 [3] and with LX-2 [4] was “Active” in each case. In [1] (filed as agonist), `CCCCC(OC(=O)C1=C[C@@H](O)[C@@H](O)[C@H](O)C1)c1cccc(OCCCC(C)(C)O)c1` (stereo partly drawn) came in with an Activity of 50%. Consider `CC(C)(O)CCCOc1ccc(C#CC2=C[C@@H](O)[C@@H](O)[C@H](O)C2)c2c1CCCC2`, for which the Activity in experiment [1] came out at 15%. In [1] (filed as agonist), `CCn1cc(C(CC)(CC)c2ccc(OCC(O)CO)c(C)c2)cc1C(=O)NCC(C)(C)O` (stereo not drawn) yielded an Activity of 57%. For the same compound, the inhibition entry with LX-2 [5] and with LX-2 [6] was “inactive” in each case. For `CCC(O)(CC)CCCOc1ccc(C#CC2=C[C@@H](O)[C@@H](O)[C@H](O)C2)c2c1CCCC2`, in experiment [1], the outcome was inactive.

In experiment [1] (filed as agonist), `CCC(O)(CC)CCCn1ccc2c(/C=C/C3=C[C@@H](O)[C@@H](O)[C@H](O)C3)cccc21` showed an Activity of 64%. For the same compound, the outcome in experiment [2] was Active.

`CC(C)(C)C(O)COc1ccc(/C=C/C2=C[C@@H](O)[C@@H](O)[C@H](O)C2)c2c1CCCC2` (stereo partly drawn) came in with an Activity in experiment [1] (filed as agonist) of 50%. The same measure, in the same setting: the figure for `CC(C)c1ccc(C(=O)COc2ccc(/C=C/C3=C[C@@H](O)[C@@H](O)[C@H](O)C3)c3c2CCCC3)cc1` is 76%; for `CC(C)(O)CCCOc1cccc(COC(=O)C2=C[C@@H](O)[C@@H](O)[C@H](O)C2)c1` it is 49%; for `CC(C)(O)CCCOc1cccc2c1CCCC2OC(=O)C1=C[C@@H](O)[C@@H](O)[C@H](O)C1` (stereo partly drawn) it is 69%. In experiment [1] (filed as agonist), `CCC(O)(CC)CCCOc1cccc2c1CCCC2OC(=O)C1=C[C@@H](O)[C@@H](O)[C@H](O)C1` (stereo partly drawn) returned an Activity of 68%. Compound `CCC(O)(CC)c1ccc(-c2ccc(COC(=O)C3=C[C@@H](O)[C@@H](O)[C@H](O)C3)s2)c(C)c1` displayed an Activity in experiment [1] (filed as agonist) of 60%. Also, the result in experiment [2] and in experiment [7] was Active. Moreover, the inhibition entry in the experiment on LX-2 [3], in the experiment with LX-2 [4], in the experiment on LX-2 [8] and with LX-2 [9] was “Active” throughout. In turn, `Cc1cc(C(C)(C)O)ccc1-c1ccc(COC(=O)C2=C[C@@H](O)[C@@H](O)[C@H](O)C2)s1` had an Activity in experiment [1] (filed as agonist) of 71%. In experiment [1] (filed as agonist), `CCCC(OC(=O)C1=C[C@@H](O)[C@@H](O)[C@H](O)C1)c1cccc(OCCCC(C)(C)O)c1` (stereo partly drawn) had an Activity of 77%. In addition, the inhibition entry in the experiment on LX-2 [3], in the experiment with LX-2 [4], in the experiment with LX-2 [8] and in the experiment on LX-2 [9] was “Active” each time.

`CCN(CC)CCCOc1cccc2c1CCCC2OC(=O)C1=C[C@@H](O)[C@@H](O)[C@H](O)C1` (stereo partly drawn): the Activity in [1] (filed as agonist) was 64%.

Turning to `OC(COc1ccc(/C=C/C2=C[C@@H](O)[C@@H](O)[C@H](O)C2)c2c1CCCC2)c1ccccc1` (stereo partly drawn), in experiment [1], the Activity came out at 77%. The inhibition result in the experiment on LX-2 [3], in the experiment with LX-2 [4], in the experiment on LX-2 [8] and in the experiment on LX-2 [9] was “inactive” each time.

As to `CC(C)(O)CCCCOc1ccc(/C=C/C2=C[C@@H](O)[C@@H](O)[C@H](O)C2)c2c1CCCC2`, the Activity in experiment [1] is 21%. With `CCCC(O)(CCC)CCCOc1cccc2c1CCCC2OC(=O)C1=C[C@@H](O)[C@@H](O)[C@H](O)C1` (stereo partly drawn), the Activity in [1] (filed as agonist) was determined as 77%. The outcome in experiment [2] and in experiment [7] was Active. The inhibition result in the experiment on LX-2 [3] and with LX-2 [4] was “Active” in each case. In the case of `C=C1/C(=C\C=C2/CCC[C@]3(C)[C@@H]([C@H](C)/C=C/[C@@H](O)C4CC4)CC[C@@H]23)C[C@@H](O)C[C@@H]1O`, the Activity in experiment [1] (filed as agonist) was 100%. Further, the inhibition entry in the experiment with LX-2 [5] and in the experiment with LX-2 [6] was “inactive” throughout. As to `CC(OC(=O)C1=C[C@@H](O)[C@@H](O)[C@H](O)C1)c1cccc(OCCCC(C)(C)O)c1` (stereo partly drawn), the Activity in experiment [1] (filed as agonist) was determined as 85%.

Consider `CCC(O)(CC)CCCCOc1ccc(C#CC2=C[C@@H](O)[C@@H](O)[C@H](O)C2)c2c1CCCC2`, for which the Activity in experiment [1] (filed as agonist) turned out to be 49%. In the case of `O=C(OC1CCCc2c(OCCCN3CCOCC3)cccc21)C1=C[C@@H](O)[C@@H](O)[C@H](O)C1` (stereo partly drawn), the Activity in experiment [1] came out at 50%. The inhibition entry in the experiment on LX-2 [3], in the experiment on LX-2 [4], in the experiment with LX-2 [8] and in the experiment on LX-2 [9] was “inactive” each time.

As to `CC(C)(O)CCOc1ccc(C#CC2=C[C@@H](O)[C@@H](O)[C@H](O)C2)c2c1CCCC2`, in [1] (filed as agonist), the Activity amounted to 56%.

Compound `CCC(OC(=O)C1=C[C@@H](O)[C@@H](O)[C@H](O)C1)c1cccc(OCCCC(C)(C)O)c1` (stereo partly drawn) showed an Activity in experiment [1] (filed as agonist) of 84%. Also, the inhibition result in the experiment with LX-2 [3], in the experiment on LX-2 [4], in the experiment on LX-2 [8] and with LX-2 [9] was “Active” throughout. Regarding `CC(C)(O)CCCCOc1cccc2c1CCCC2OC(=O)C1=C[C@@H](O)[C@@H](O)[C@H](O)C1` (stereo partly drawn), the Activity in experiment [1] (filed as agonist) came to 65%. `C=CCC(O)(CC=C)CCCOc1cccc2c1CCCC2OC(=O)C1=C[C@@H](O)[C@@H](O)[C@H](O)C1` (stereo partly drawn): the Activity in [1] (filed as agonist) was 51%. Still for that read-out and setting: the figure for `CC(C)(C)C(=O)COc1ccc(/C=C/C2=C[C@@H](O)[C@@H](O)[C@H](O)C2)c2c1CCCC2` is 68%; for `CC(C)(O)CCCOc1ccc(/C=C/C2=C[C@@H](O)[C@@H](O)[C@H](O)C2)c2c1CCCC2` it is 43%. For the compound `CCCCC(O)(CCCC)CCCOc1cccc2c1CCCC2OC(=O)C1=C[C@@H](O)[C@@H](O)[C@H](O)C1` (stereo partly drawn), in experiment [1], the Activity was found to be 34%.
